Columns and labels:
PASC (Long Covid) = experiment: Clinical example: inventor's self-treatment of Long Covid (PASC) symptoms; type: in vivo, human; details: for relief of constant headache: person, symptoms returning from mid-December 2020 after Covid, self-medication
Covid-19 [1] = details: cited from earlier work
Covid-19 [2] = details: cited from earlier work; remark: listed apart in the source
ACE2 receptor = ACE2 receptor (Homo sapiens, UniProt Q9BYF1); details: active site of ACE2 receptor; cited from earlier work
Sequence of ACE2 receptor (Q9BYF1 18-805): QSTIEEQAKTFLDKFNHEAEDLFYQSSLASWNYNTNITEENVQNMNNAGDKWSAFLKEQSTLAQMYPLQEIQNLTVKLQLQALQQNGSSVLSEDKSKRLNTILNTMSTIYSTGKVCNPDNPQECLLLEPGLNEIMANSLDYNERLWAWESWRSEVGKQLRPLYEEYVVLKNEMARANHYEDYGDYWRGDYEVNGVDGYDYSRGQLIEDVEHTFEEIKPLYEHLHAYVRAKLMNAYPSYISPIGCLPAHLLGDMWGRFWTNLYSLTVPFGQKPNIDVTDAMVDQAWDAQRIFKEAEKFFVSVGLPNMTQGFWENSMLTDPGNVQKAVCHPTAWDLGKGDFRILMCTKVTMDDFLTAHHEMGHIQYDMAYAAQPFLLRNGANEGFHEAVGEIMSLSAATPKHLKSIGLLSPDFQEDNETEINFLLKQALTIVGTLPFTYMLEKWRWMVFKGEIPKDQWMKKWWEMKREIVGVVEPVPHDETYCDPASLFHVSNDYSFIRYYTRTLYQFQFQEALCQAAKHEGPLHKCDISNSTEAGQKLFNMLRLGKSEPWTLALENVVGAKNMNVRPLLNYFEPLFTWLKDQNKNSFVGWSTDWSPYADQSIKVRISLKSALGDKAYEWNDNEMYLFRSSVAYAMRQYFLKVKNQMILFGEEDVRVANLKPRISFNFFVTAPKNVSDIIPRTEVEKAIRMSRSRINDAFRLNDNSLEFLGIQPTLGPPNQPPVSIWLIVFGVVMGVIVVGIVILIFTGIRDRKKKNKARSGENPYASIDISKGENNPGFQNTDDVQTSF

With O=c1c(O)c(-c2ccc(O)c(O)c2)oc2cc(O)cc(O)c12 [Quercetin] the energy and headaches (PASC (Long Covid); Black Seed Oil and Quercetin (with Zinc) used together, within a few days of using them) was “an increase in energy and I was having fewer headaches”.

For C=C1CC[C@@H]2[C@](C)(CO)[C@H](O)CC[C@@]2(C)[C@@H]1C/C=C1/C(=O)OC[C@H]1O [andrographolide], the “inhibitory effect against Covid-19” value (Covid-19 [1]) is given as “potent inhibitory effect”.

For CC(C)Cc1ccc(C(C)C(=O)O)cc1 (stereo not shown) [ibuprofen], the “relief of constant headache” value (PASC (Long Covid)) was “would not go away”.

In the case of O=C(O)c1ccccc1 [Benzioc Acid], the “antiviral properties for Covid-19” value (Covid-19 [2]) is given as “strong antiviral properties”.

With COc1ccc2cc([C@H](C)C(=O)O)ccc2c1 [naproxen] the “relief of constant headache” value (PASC (Long Covid)) was “would not go away”.

For O=C(O)C=Cc1ccccc1 [Cinnamic Acid], the “blocking of Covid-19 via ACE2 receptor” value (ACE2 receptor) is listed as “block Covid-19 via the active site of ACE2 receptor”.

In the case of CC(=O)Oc1ccccc1C(=O)O [aspirin], the “relief of constant headache” value (PASC (Long Covid)) is reported as “would not go away”.

Reference: patent US20260151414A1, “COMPOSITIONS AND THERAPEUTIC METHODS FOR TREATING CHRONIC SEQUALAE FOLLOWING VIRAL INFECTIONS” (priority 2023, published 2026)
